Measured values as given in patent US10328053B2 (Gilead Sciences, Inc., priority 2016, dated 2019).

Test: Hepatic Stability Assay (in vitro half-life method)
Format: in vitro ADME
Design: dose or concentration left out as unconfirmed
Conditions: pooled cryopreserved hepatocytes, 37° C., 1×10^6 cells/mL, 0-6 hours, LC-MS/MS, 39.5 hours is the maximum detectable half life, read-out: t½ (converted)
Description: Hepatic Stability Assay The metabolic stability of certain compounds disclosed herein was assessed in vitro in pooled cryopreserved hepatocytes using the in vitro half-life method. Incubations were at 37° C. and final concentrations in the incubations were 1×10^6 cells/mL and […] test concentration of the compound. Aliquots were sequentially removed after 0, 1, 3 and 6 hours and analyzed by LC-MS/MS. In vitro half-life was determined by measuring the rate of disappearance of the compound and then scaled to predicted hepatic clearance using the well-stirred model. […] As such, compounds having a value of 39.5 may have a half live that exceeds 39.5 hours.

Row | SMILES | half-life [h]
1 | Cc1c(C(=O)C(=O)NC2(C(=O)N(C)C)CC(F)(F)C2)c2n(c1C(=O)Nc1ccc(F)c(F)c1)CCC2 [Example 125, N-(3,4-difluorophenyl)-7-(2-((1-(dimethylcarbamoyl)-3,3-difluorocyclobutyl)amino)-2-oxoacetyl)-6-methyl-2,3-dihydro-1H-pyrrolizine-5-carboxamide] | 1.9
2 | Cc1c(C(=O)C(=O)N[C@H](C)C(F)(F)F)c2n(c1C(=O)Nc1ccc(F)c(Cl)c1)C(C)CC2 (single isomer, unassigned) [Example 24] | 5
3 | Cc1c(C(=O)C(=O)NC2(c3c[nH]nn3)CC(F)(F)C2)c2n(c1C(=O)Nc1ccnc(C(F)F)c1)[C@@H]1C[C@@H]1C2 [Example 78, (1aR,6aR)-5-(2-((3,3-difluoro-1-(1H-1,2,3-triazol-4-yl)cyclobutyl)amino)-2-oxoacetyl)-N-(2-(difluoromethyl)pyridin-4-yl)-4-methyl-1,1a,6,6a-tetrahydrocyclopropa[b]pyrrolizine-3-carboxamide] | 4.8
4 | Cc1c(C(=O)C(=O)NC2(c3c[nH]nn3)CC2)c2n(c1C(=O)Nc1cccc(C(F)F)c1)CCC2 [Example 103, 7-(2-((1-(1H-1,2,3-triazol-4-yl)cyclopropyl)amino)-2-oxoacetyl)-N-(3-(difluoromethyl)phenyl)-6-methyl-2,3-dihydro-1H-pyrrolizine-5-carboxamide] | 8.5
5 | Cc1c(C(=O)C(=O)N[C@H](C)C(F)(F)F)c2n(c1C(=O)Nc1ccc(F)c(Cl)c1)CCC2 [Example 2, (R)—N-(3-chloro-4-fluorophenyl)-6-methyl-7-(2-oxo-2-((1,1,1-trifluoropropan-2-yl)amino)acetyl)-2,3-dihydro-1H-pyrrolizine-5-carboxamide] | 15
6 | Cc1c(C(=O)C(=O)NC2(c3c[nH]nn3)CC2)c2n(c1C(=O)Nc1ccc(F)c(F)c1)[C@@H]1C[C@@H]1C2 [Example 81, (1aR,6aR)-5-(2-((1-(1H-1,2,3-triazol-4-yl)cyclopropyl)amino)-2-oxoacetyl)-N-(3,4-difluorophenyl)-4-methyl-1,1a,6,6a-tetrahydrocyclopropa[b]pyrrolizine-3-carboxamide] | 8
7 | Cc1c(C(=O)C(=O)NC2(c3c[nH]nn3)CC2)c2n(c1C(=O)Nc1cc(F)c(F)c(F)c1)CCC2 [Example 26, 7-(2-((1-(1H-1,2,3-triazol-4-yl)cyclopropyl)amino)-2-oxoacetyl)-6-methyl-N-(3,4,5-trifluorophenyl)-2,3-dihydro-1H-pyrrolizine-5-carboxamide] | 8.2
8 | Cc1c(C(=O)C(=O)NC2(C)CS(=O)(=O)C2)c2n(c1C(=O)Nc1cc(F)c(F)c(F)c1)[C@@H]1C[C@@H]1C2 [Example 73, (1aR,6aR)-4-methyl-5-(2-((3-methyl-1,1-dioxidothietan-3-yl)amino)-2-oxoacetyl)-N-(3,4,5-trifluorophenyl)-1,1a,6,6a-tetrahydrocyclopropa[b]pyrrolizine-3-carboxamide] | 16.1
9 | Cc1c(C(=O)C(=O)NC2(c3c[nH]nn3)CC2)c2n(c1C(=O)Nc1cc(F)cc(F)c1)CCC2 [Example 76, 7-(2-((1-(1H-1,2,3-triazol-4-yl)cyclopropyl)amino)-2-oxoacetyl)-N-(3,5-difluorophenyl)-6-methyl-2,3-dihydro-1H-pyrrolizine-5-carboxamide] | 19.5
10 | CNC(=O)C1(NC(=O)C(=O)c2c(C)c(C(=O)Nc3ccc(F)c(F)c3)n3c2C[C@H]2C[C@H]23)CC(F)(F)C1 [Example 96, (1aR,6aR)-5-(2-((3,3-difluoro-1-(methylcarbamoyl)cyclobutyl)amino)-2-oxoacetyl)-N-(3,4-difluorophenyl)-4-methyl-1,1a,6,6a-tetrahydrocyclopropa[b]pyrrolizine-3-carboxamide] | 22.6
11 | Cc1c(C(=O)C(=O)NC2(c3nnn(C)n3)CC2)c2n(c1C(=O)Nc1ccc(F)c(Cl)c1)CCC2 [Example 50, N-(3-chloro-4-fluorophenyl)-6-methyl-7-(2-((1-(2-methyl-2H-tetrazol-5-yl)cyclopropyl)amino)-2-oxoacetyl)-2,3-dihydro-1H-pyrrolizine-5-carboxamide] | 15.3
12 | CNC(=O)C1(NC(=O)C(=O)c2c(C)c(C(=O)Nc3ccc(F)c(Cl)c3)n3c2C[C@@H]2C[C@@H]23)CC(F)(F)C1 [Example 4, (1aS,6aS)—N-(3-chloro-4-fluorophenyl)-5-(2-((3,3-difluoro-1 (methylcarbamoyl)cyclobutyl)amino)-2-oxoacetyl)-4-methyl-1,1a,6,6a-tetrahydrocyclopropa[b]pyrrolizine-3-carboxamide] | 7.3
13 | Cc1c(C(=O)C(=O)NC2(C(N)=O)CC(F)(F)C2)c2n(c1C(=O)Nc1ccc(F)c(F)c1)CCC2 [Example 121, 7-(2-((1-carbamoyl-3,3-difluorocyclobutyl)amino)-2-oxoacetyl)-N-(3,4-difluorophenyl)-6-methyl-2,3-dihydro-1H-pyrrolizine-5-carboxamide] | 19.8
14 | Cc1c(C(=O)C(=O)NC2(c3cnn[nH]3)CC2)c2n(c1C(=O)Nc1ccc(F)cc1)[C@@H]1C[C@@H]1C2 [Example 99, (1aR,6aR)-5-(2-((1-(1H-1,2,3-triazol-5-yl)cyclopropyl)amino)-2-oxoacetyl)-N-(4-fluorophenyl)-4-methyl-1,1a,6,6a-tetrahydrocyclopropa[b]pyrrolizine-3-carboxamide] | 9.6
15 | CNC(=O)C1(NC(=O)C(=O)c2c(C)c(C(=O)Nc3cc(F)c(F)c(Cl)c3)n3c2CCC3)CC(F)(F)C1 [Example 129, N-(3-chloro-4,5-difluorophenyl)-7-(2-((3,3-difluoro-1-(methylcarbamoyl)cyclobutyl)amino)-2-oxoacetyl)-6-methyl-2,3-dihydro-1H-pyrrolizine-5-carboxamide] | 20.8
16 | Cc1c(C(=O)C(=O)NC2(c3nncs3)CC2)c2n(c1C(=O)Nc1ccc(F)c(C#N)c1)[C@@H]1C[C@@H]1C2 [Example 58, (1aR,6aR)-5-(2-((1-(1,3,4-thiadiazol-2-yl)cyclopropyl)amino)-2-oxoacetyl)-N-(3-cyano-4-fluorophenyl)-4-methyl-1,1a,6,6a-tetrahydrocyclopropa[b]pyrrolizine-3-carboxamide] | 38.5
17 | Cc1c(C(=O)C(=O)NC2(C(N)=O)CC(F)(F)C2)c2n(c1C(=O)Nc1cc(F)c(F)c(F)c1)CCC2 [Example 140, 7-(2-((1-carbamoyl-3,3-difluorocyclobutyl)amino)-2-oxoacetyl)-6-methyl-N-(3,4,5-trifluorophenyl)-2,3-dihydro-1H-pyrrolizine-5-carboxamide] | 13.5
18 | Cc1c(C(=O)C(=O)NC2(c3cnn[nH]3)CC2)c2n(c1C(=O)Nc1cc(Cl)ccc1F)CCC2 [Example 86, 7-(2-((1-(1H-1,2,3-triazol-5-yl)cyclopropyl)amino)-2-oxoacetyl)-N-(5-chloro-2-fluorophenyl)-6-methyl-2,3-dihydro-1H-pyrrolizine-5-carboxamide] | 9.4
19 | Cc1c(C(=O)C(=O)N[C@]2(C)C[S@@+]([O-])C2)c2n(c1C(=O)Nc1ccc(F)c(F)c1)CCC2 [Example 151, N-(3,4-difluorophenyl)-6-methyl-7-(2-(((1r,3r)-3-methyl-1-oxidothietan-3-yl)amino)-2-oxoacetyl)-2,3-dihydro-1H-pyrrolizine-5-carboxamide] | 5
20 | Cc1c(C(=O)C(=O)N[C@]2(C)C[S@+]([O-])C2)c2n(c1C(=O)Nc1ccc(F)c(F)c1)CCC2 [Example 152, N-(3,4-difluorophenyl)-6-methyl-7-(2-(((1s,3s)-3-methyl-1-oxidothietan-3-yl)amino)-2-oxoacetyl)-2,3-dihydro-1H-pyrrolizine-5-carboxamide] | 10.5
21 | Cc1c(C(=O)C(=O)NC2(c3c[nH]nn3)CC(F)(F)C2)c2n(c1C(=O)Nc1ccnc(C(F)F)c1F)C[C@H](F)C2 [Example 134, (R)-7-(2-((3,3-difluoro-1-(1H-1,2,3-triazol-4-yl)cyclobutyl)amino)-2-oxoacetyl)-N-(2-(difluoromethyl)-3-fluoropyridin-4-yl)-2-fluoro-6-methyl-2,3-dihydro-1H-pyrrolizine-5-carboxamide] | 17.9
22 | Cc1c(C(=O)C(=O)NC2(C(=O)N(C)C)CC(F)(F)C2)c2n(c1C(=O)Nc1ccc(F)c(Cl)c1)CCC2 [Example 124, N-(3-chloro-4-fluorophenyl)-7-(2-((1-(dimethylcarbamoyl)-3,3-difluorocyclobutyl)amino)-2-oxoacetyl)-6-methyl-2,3-dihydro-1H-pyrrolizine-5-carboxamide] | 1
23 | Cc1c(C(=O)C(=O)NC2(c3c[nH]nn3)CC2)c2n(c1C(=O)Nc1ccc(F)c(F)c1)CCC2 [Example 43, 7-(2-((1-(1H-1,2,3-triazol-4-yl)cyclopropyl)amino)-2-oxoacetyl)-N-(3,4-difluorophenyl)-6-methyl-2,3-dihydro-1H-pyrrolizine-5-carboxamide] | 16
24 | Cc1nnc(C2(NC(=O)C(=O)c3c(C)c(C(=O)Nc4ccc(F)c(Cl)c4)n4c3CCC4)CC2)[nH]1 [Example 51, N-(3-chloro-4-fluorophenyl)-6-methyl-7-(2-((1-(5-methyl-4H-1,2,4-triazol-3-yl)cyclopropyl)amino)-2-oxoacetyl)-2,3-dihydro-1H-pyrrolizine-5-carboxamide] | 9.5
25 | CNC(=O)C1(NC(=O)C(=O)c2c(C)c(C(=O)Nc3ccc(F)c(Cl)c3)n3c2CCC3(C)C)CC(F)(F)C1 [Example 15, N-(3-chloro-4-fluorophenyl)-7-(2-((3,3-difluoro-1-(methylcarbamoyl)cyclobutyl)amino)-2-oxoacetyl)-3,3,6-trimethyl-2,3-dihydro-1H-pyrrolizine-5-carboxamide] | 0.5
